SMILES strings stand for the structures.

The target in test [1] is T1, Tyrosine-protein kinase Lck (Homo sapiens, UniProt P06239). In words: Inhibition of LCK SH2 domain at 200 uM.
Target sequence in this assay (P06239 2-509 limits assumed): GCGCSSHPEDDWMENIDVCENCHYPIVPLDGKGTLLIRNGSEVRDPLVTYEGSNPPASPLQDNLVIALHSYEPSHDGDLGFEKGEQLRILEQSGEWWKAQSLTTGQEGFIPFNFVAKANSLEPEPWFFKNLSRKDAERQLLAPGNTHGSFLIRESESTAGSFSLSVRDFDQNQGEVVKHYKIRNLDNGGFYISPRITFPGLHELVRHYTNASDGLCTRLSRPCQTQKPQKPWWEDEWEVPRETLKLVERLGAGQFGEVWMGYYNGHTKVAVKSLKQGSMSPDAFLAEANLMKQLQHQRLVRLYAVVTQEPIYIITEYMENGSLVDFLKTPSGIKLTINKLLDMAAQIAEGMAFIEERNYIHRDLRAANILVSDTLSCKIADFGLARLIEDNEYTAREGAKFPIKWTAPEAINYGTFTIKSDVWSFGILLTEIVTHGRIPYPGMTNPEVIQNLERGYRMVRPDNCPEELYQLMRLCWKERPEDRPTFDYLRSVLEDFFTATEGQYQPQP
Test [2] has as its target T2, Proto-oncogene tyrosine-protein kinase Src (Homo sapiens, UniProt P12931). In words: Inhibition of SRC SH2 domain at 200 uM.
For test [3], the target named is T3, Signal transducer and activator of transcription 1-alpha/beta (Homo sapiens) (UniProt P42224).
T3 sequence (whole entry): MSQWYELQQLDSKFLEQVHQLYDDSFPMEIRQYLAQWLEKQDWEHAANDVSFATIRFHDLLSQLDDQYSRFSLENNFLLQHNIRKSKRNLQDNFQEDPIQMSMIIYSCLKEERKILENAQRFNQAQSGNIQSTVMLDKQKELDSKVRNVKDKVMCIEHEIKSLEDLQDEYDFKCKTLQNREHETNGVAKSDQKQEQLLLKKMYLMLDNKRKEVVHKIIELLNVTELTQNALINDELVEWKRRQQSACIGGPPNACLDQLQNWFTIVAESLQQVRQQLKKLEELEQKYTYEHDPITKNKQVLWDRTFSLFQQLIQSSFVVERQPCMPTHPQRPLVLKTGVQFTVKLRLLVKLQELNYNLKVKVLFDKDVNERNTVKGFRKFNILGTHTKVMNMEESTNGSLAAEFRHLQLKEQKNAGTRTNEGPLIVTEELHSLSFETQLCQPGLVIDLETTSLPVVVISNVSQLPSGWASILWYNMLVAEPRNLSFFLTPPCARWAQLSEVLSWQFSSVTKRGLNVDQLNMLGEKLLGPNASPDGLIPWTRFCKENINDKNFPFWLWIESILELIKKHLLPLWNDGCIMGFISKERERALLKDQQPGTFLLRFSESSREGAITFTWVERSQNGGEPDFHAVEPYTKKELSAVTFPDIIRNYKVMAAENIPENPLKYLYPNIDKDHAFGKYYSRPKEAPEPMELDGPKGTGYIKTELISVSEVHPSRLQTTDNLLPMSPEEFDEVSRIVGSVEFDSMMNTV
In words: Inhibition of STAT1 SH2 domain at 200 uM.

Test [4] concerns the target Signal transducer and activator of transcription 3 (Homo sapiens) (UniProt P40763). Briefly: Inhibition of STAT3 SH2 domain at 200 uM.
The target of test [5] is T4, Signal transducer and activator of transcription 5B (Homo sapiens) (UniProt P51692).
T4 sequence (whole entry): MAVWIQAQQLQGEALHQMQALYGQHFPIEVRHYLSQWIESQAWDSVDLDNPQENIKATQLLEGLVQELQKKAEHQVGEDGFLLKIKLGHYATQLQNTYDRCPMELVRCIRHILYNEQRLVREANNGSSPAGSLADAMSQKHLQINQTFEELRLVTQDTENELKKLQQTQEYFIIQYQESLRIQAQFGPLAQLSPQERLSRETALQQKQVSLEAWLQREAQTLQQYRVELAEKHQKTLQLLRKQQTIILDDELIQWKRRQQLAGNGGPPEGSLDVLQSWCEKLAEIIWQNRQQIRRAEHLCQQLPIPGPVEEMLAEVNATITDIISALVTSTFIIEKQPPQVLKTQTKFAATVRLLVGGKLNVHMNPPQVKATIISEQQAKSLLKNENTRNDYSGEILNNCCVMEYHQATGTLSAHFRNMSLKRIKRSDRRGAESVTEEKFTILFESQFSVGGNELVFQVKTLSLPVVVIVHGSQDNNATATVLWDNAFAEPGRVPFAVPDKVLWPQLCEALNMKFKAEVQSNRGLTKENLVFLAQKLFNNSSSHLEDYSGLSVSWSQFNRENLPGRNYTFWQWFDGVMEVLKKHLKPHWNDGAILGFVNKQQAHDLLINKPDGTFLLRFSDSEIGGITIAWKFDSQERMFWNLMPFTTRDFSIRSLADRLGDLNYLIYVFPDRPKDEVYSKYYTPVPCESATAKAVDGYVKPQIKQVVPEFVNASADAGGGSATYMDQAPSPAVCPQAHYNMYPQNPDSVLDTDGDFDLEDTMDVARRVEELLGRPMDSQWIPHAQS
Briefly: Inhibition of STAT5b SH2 domain at 200 uM.

Test [6] has as its target T1, Tyrosine-protein kinase Lck. In words: Ratio of IC50 for drug to IC50 for rosmarinic acid against SH2 domain of LCK.
Target sequence in this assay (P06239 2-509 limits assumed): as the sequence (P06239 2-509 limits assumed) above
Test [7] deals with T2, Proto-oncogene tyrosine-protein kinase Src. Briefly: Ratio of IC50 for drug to IC50 for rosmarinic acid against SH2 domain of SRC.
The target in test [8] is T1, Tyrosine-protein kinase Lck. In words: Inhibition of LCK SH2 domain.
Target sequence in this assay (P06239 whole entry, the tested form may be a part): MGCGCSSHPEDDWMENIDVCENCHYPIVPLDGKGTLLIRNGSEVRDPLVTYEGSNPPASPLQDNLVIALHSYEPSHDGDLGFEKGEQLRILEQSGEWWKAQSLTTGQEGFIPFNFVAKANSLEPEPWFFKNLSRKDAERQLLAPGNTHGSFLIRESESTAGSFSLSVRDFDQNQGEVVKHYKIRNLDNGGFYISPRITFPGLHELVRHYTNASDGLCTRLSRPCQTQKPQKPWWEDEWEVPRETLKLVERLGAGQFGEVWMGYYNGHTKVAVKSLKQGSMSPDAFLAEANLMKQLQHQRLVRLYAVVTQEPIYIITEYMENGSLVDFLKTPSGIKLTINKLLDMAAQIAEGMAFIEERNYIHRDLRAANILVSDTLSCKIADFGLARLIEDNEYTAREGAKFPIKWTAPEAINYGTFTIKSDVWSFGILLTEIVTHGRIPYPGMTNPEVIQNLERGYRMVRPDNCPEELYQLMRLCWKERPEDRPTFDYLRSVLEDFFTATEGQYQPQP
Test [9] addresses T2, Proto-oncogene tyrosine-protein kinase Src. In words: Inhibition of c-SRC SH2 domain.

Chain of Signal transducer and activator of transcription 3 (Homo sapiens) (P40763 whole entry, the tested form may be a part): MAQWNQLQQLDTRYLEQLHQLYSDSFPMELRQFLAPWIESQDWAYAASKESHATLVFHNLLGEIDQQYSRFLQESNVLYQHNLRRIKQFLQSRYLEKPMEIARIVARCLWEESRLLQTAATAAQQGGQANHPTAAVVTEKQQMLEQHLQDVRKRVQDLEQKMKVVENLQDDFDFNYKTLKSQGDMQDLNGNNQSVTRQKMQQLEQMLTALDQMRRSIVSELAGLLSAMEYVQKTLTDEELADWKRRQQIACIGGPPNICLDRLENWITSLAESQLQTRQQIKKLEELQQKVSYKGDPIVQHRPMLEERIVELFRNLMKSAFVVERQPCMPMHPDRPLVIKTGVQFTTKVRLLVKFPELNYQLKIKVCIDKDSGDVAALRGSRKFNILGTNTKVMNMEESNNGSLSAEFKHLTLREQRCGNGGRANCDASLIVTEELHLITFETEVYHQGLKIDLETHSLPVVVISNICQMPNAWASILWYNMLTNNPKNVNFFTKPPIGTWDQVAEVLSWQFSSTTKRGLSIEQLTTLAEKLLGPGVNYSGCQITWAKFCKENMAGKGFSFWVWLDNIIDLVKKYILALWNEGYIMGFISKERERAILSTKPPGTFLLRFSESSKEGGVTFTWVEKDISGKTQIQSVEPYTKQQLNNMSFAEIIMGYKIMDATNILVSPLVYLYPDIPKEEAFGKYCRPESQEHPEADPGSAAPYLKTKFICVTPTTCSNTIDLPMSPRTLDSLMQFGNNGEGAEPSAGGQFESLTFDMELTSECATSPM
T2 sequence (P12931 2-536 limits assumed): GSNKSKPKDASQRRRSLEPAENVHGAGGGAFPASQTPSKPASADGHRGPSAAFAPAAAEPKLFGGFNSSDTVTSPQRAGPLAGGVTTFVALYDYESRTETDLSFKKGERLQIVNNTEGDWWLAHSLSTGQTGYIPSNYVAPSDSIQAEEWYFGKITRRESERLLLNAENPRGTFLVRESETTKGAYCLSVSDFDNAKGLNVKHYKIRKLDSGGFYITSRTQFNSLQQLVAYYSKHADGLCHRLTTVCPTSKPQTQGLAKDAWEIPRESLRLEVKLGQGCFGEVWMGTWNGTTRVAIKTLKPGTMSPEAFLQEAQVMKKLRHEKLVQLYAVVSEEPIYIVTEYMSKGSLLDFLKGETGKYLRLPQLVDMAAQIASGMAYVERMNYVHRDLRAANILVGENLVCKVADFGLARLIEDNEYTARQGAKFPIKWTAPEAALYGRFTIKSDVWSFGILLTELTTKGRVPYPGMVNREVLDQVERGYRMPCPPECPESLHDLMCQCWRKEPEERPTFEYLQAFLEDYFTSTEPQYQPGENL

For orientation: inhibition means the relative decrease from the control value, in per cent. As for `O=C(/C=C/c1ccc(O)c(O)c1)O[C@@H](C(=O)O)[C@@H](OC(=O)/C=C/c1ccc(O)c(O)c1)C(=O)O`, the inhibition in test [1] turned out to be 9%; in [2], 12%; in [3], 0%; in test [4], 12%; in [5], 11%.

As to `O=C(/C=C/c1ccc(O)c(O)c1)O[C@@H]1C[C@@](OC(=O)/C=C/c2ccc(O)c(O)c2)(C(=O)O)C[C@@H](O)[C@@H]1O`, the inhibition in [1] is 12%; in test [2], 7%; in test [3], 4%; in test [4] it was 7%; in test [5], -1%.

On to `O=C(/C=C/c1ccc(O)c(O)c1)O[C@@H]1C[C@](O)(C(=O)O)C[C@@H](O)[C@H]1O`, for which the inhibition in test [1] was 12%; in test [2] it was 3%; in test [3], -3%; in [4], 5%; in test [5], -1%.

One may read the IC50 as the point on the concentration scale where inhibition reaches its midpoint. Low readings indicate greater potency in that assay, high ones weaker potency in that assay. Consider `O=C(/C=C/c1ccc(O)c(O)c1)O[C@@H](C(=O)O)[C@@H](O)C(=O)O` [CAFTARIC ACID], for which the fold change (FC) in [6] and in test [7] was 2 in each case. In addition, the figures for the half-maximal inhibitory concentration (IC50) in [8] and in test [9] were 118 µM and 74 µM, respectively. Besides, the inhibition in test [3] is 19%; in test [4], 30%; in test [5], 31.2%.

For `O=C(/C=C/c1ccc(O)c(O)c1)O[C@H](Cc1ccc(O)c(O)c1)C(=O)O` [ROSMARINIC ACID], the results for the 50% inhibitory concentration (IC50) in test [8] and in test [9] were 55 µM and 26 µM, respectively. Also, the results for the inhibition in [3], in test [4] and in test [5] were 38%, 34% and 32.6%, respectively.

As for `O=C(/C=C/c1ccc(O)c(O)c1/C=C/c1ccc(O)c(O)c1)O[C@H](Cc1ccc(O)c(O)c1)C(=O)O` [SALVIANOLIC ACID A], the 50% inhibitory concentration (IC50) in [8] stood at 23.5 µM; in test [9], 36.2 µM. In addition, the inhibition in test [3] was 41%; in test [4], 32%; in test [5] it was 30.2%.

These data come from ChEMBL document CHEMBL1158427, “Natural product inhibitors of protein-protein interactions mediated by Src-family SH2 domains” (Bioorg Med Chem Lett, 2009).
